The source of these data is article PMC5800494 (ACS chemical biology, 2017).

Molecules are shown by their SMILES. Converted amounts (≈) assume the structure as drawn.

One experiment has as its system [D622G]β′-RNAP. As to the kind of experiment: Fluorescence-detected RNAP inhibition assay. Type of experiment: biochemical, E. coli. Conditions: enzyme: [D622G]β′-RNAP vs RNAP (co-expressed).
Experiment [1] addresses RNAP (wild-type, co-expressed) (Escherichia coli, UniProt P0A800+P0A8T7+P0A8V2). The experiment can be described thus: biochemical. Also noted: species or system E. coli.
The next experiment concerns the target yeast invertase (Saccharomyces cerevisiae, UniProt P00724). Conditions: compound at 10 μM against 5μM invertase.
In experiment [2] the test system is E. coli D21f2tolC Rif^R-D516V (rfa tolC rpoB-D516V). The experiment can be described thus: Broth microdilution MIC. Type of experiment: cell-based. Conditions: Escherichia coli. On the technique in general: Dilution methods test growth across graded concentrations, often in twofold steps.
The next experiment deals with [S531L]β-RNAP (Escherichia coli, UniProt P0A800+P0A8T7+P0A8V2, S531L). As to the kind of experiment: biochemical. Also on record: species or system E. coli.
The test system of experiment [3] is E. coli MB5746 (lpxC tolC). The experiment can be described thus: Broth microdilution MIC. The class given is cell-based. Conditions: Escherichia coli.
Experiment [4] has as its system E. coli D21f2tolC Rif^R-S531L (rfa tolC rpoB-S531L). The experiment can be described thus: Broth microdilution MIC. The class given is cell-based. Conditions: Escherichia coli.
For a further experiment, the system named is Δω RNAP. Type of experiment: biochemical, E. coli. Conditions: enzyme: Δω RNAP vs RNAP (reconstituted).
The subject of experiment [5] is E. coli MB5746 RpoZ (RNAP ω subunit) Δ23–91 (frameshift) mutant. The experiment can be described thus: Broth microdilution MIC on MRL-436-resistant mutant. Type of experiment: cell-based. Conditions: RpoZ Δ23–91 (frameshift) mutant of MB5746.
For experiment [6], the system named is E. coli D21f2tolC (rfa tolC). The experiment can be described thus: Broth microdilution MIC. Conditions: Escherichia coli. The class given is cell-based.
For experiment [7], the system named is E. coli MB5746 RpoZ (RNAP ω subunit) Δ1–91 (deletion). The experiment can be described thus: Broth microdilution MIC on constructed ΔrpoZ strain. Type of experiment: cell-based. Conditions: RpoZ Δ1–91 (deletion) of MB5746.
The subject of experiment [8] is E. coli D21f2tolC Rif^R-H526D (rfa tolC rpoB-H526D). The experiment can be described thus: Broth microdilution MIC. Conditions: Escherichia coli. The class given is cell-based.
Experiment [9] has as its system E. coli MB5746 RpoZ (RNAP ω subunit) Δ21–91 (frameshift) mutant. As to the kind of experiment: Broth microdilution MIC on MRL-436-resistant mutant. Type of experiment: cell-based. Conditions: RpoZ Δ21–91 (frameshift) mutant of MB5746.
The subject of experiment [10] is E. coli MB5746 RpoZ (RNAP ω subunit) Δ24–91 (frameshift) mutant. The experiment is described as above. The class given is cell-based. Conditions: RpoZ Δ24–91 (frameshift) mutant of MB5746.
Another experiment deals with [D516V]β-RNAP (Escherichia coli, UniProt P0A800+P0A8T7+P0A8V2, D516V). As to the kind of experiment: biochemical. Also on record: species or system E. coli.
A further experiment addresses RNAP (reconstituted) (Escherichia coli, UniProt P0A800+P0A8T7+P0A8V2). As to the kind of experiment: biochemical. The class given is biochemical, E. coli.
For experiment [11], the system named is E. coli MB5746 RpoC (RNAP β′ subunit) D622G mutant. The experiment can be described thus: Broth microdilution MIC on MRL-436-resistant mutant. Type of experiment: cell-based. Conditions: RpoC D622G mutant of MB5746.
The next experiment addresses RNAP (Escherichia coli, UniProt P0A800+P0A8T7+P0A8V2). As to the kind of experiment: biochemical. Also on record: species or system E. coli.
A further experiment has as its target E. coli RNAP core enzyme (Escherichia coli, UniProt P0A800+P0A8T7+P0A8V2). The experiment can be described thus: AS-MS. The class given is binding.
The subject of experiment [12] is E. coli MB5746 RpoZ (RNAP ω subunit) Δ13–91 (frameshift) mutant. As to the kind of experiment: Broth microdilution MIC on MRL-436-resistant mutant. Conditions: RpoZ Δ13–91 (frameshift) mutant of MB5746. Type of experiment: cell-based.
A further experiment deals with [H526D]β-RNAP (Escherichia coli, UniProt P0A800+P0A8T7+P0A8V2, H526D). The experiment can be described thus: biochemical. Also noted: species or system E. coli.
Experiment [13] deals with E. coli MB5746 RpoZ (RNAP ω subunit) Δ35–91 (frameshift) mutant. The experiment can be described thus: Broth microdilution MIC on MRL-436-resistant mutant. Conditions: RpoZ Δ35–91 (frameshift) mutant of MB5746. Type of experiment: cell-based.

One may read the IC50 as the concentration that inhibits the measured activity by half. Read a high IC50 as a need for much substance. A word on the MIC: it is the least concentration at which growth counts as inhibited. One may read the Kd as the equilibrium constant for the complex coming apart. The low end stands for higher affinity, the high end for lower affinity. Turning to `CO[C@H]1/C=C/O[C@@]2(C)Oc3c(C)c(O)c4c(O)c(c(/C=N/N5CCN(C)CC5)c(O)c4c3C2=O)NC(=O)/C(C)=C\C=C\[C@H](C)[C@H](O)[C@@H](C)[C@@H](O)[C@@H](C)[C@H](OC(C)=O)[C@@H]1C` [Rif, rifampin], the “IC50 ratio (IC50/IC50wild-type)” value in [D622G]β′-RNAP turned out to be 1; in [1] (enzyme: RNAP (co-expressed)), 1; in the experiment with Δω RNAP it was 0.5; at RNAP (reconstituted) (enzyme: RNAP (reconstituted)) it was 1. Further, the concentration for half-maximal inhibition (IC50) in [1] was 30 nM; in experiment [S531L]β-RNAP, 80000 nM; in [D516V]β-RNAP it was 70000 nM; on RNAP (reconstituted), 40 nM; against RNAP, 20 nM; in [H526D]β-RNAP, more than 100000 nM. In addition, the “AS-MS signal against invertase (selectivity counter-screen)” value on yeast invertase is “did not show an AS-MS signal”. Also, the MIC in experiment [2] is 32 µg/mL (≈ 38.9 µM); in [3] it was 0.5 µg/mL (≈ 0.608 µM); in experiment [4], 64 µg/mL (≈ 77.8 µM); in [6] it was 0.5 µg/mL (≈ 0.608 µM); in [8], 128 µg/mL (≈ 156 µM). Besides, the “resistance level (MIC/MICwild-type)” value in experiment [5], in [7], in [9], in [10], in experiment [11] and in experiment [12] was 1 throughout. The “resistance level (MIC/MICwild-type)” value in experiment [13] turned out to be 1. On E. coli RNAP core enzyme, this molecule came in with a Kd of less than 2000 nM.
